Here are results for two compounds from patent US20060264623A1, “DNA-PK inhibitors” (KuDOS Pharmaceuticals Limited, priority 2005, published 2006).

Molecules are shown by their SMILES. Like-named read-outs stand apart in the source and are kept apart here.

In assay [1] the test system is HeLa cells. The assay is described as follows: Survival Enhancement Ratio, clonogenic survival assay after 2 Gray irradiation. In kind it is cell-based. As to conditions: inhibitor 500 nM. As for the experimental part: The Survival Enhancement Ratio (SER) is a ratio of the enhancement of cell kill elicited by the DNA-PK inhibitor after 2 Grays of irradiation compared to unirradiated control cells. DNA-PK inhibitors were used at a fixed concentration of 500 nM. Radiation was delivered by a Faxitron 43855D machine at a dose rate of 1 Gy pre minute The SER at 2 Gray irradiation was calculated from the formula: [formula]
The degree of cell killing was monitored by a standard clonogenic survival assay. Briefly, tissue culture treated 6-well plates were seeded with HeLa cells at an appropriate concentration to give 100-200 colonies per well and returned to the incubator in order to allow the cells to attach. Four hours later, compound or vehicle control was added to the cells. The cells were then incubated for 1 hour in the presence of inhibitor prior to irradiation at 2 Gray using a Faxitron 43855D cabinet X-ray machine. The cells were then incubated for a further 16 hours before the media was replaced with fresh media in the absence of DNA-PK inhibitor. After 8 days, colonies formed were fixed and stained with Giemsa (Sigma, Poole, UK) and scored using an automated colony counter (Oxford Optronics Ltd, Oxford, UK). The data was calculated as described above.

Assay [2] deals with T1, DNA-PK (Homo sapiens, UniProt P78527). The assay is described as follows: DNA-PK inhibition assay (ELISA, p53 serine 15 phosphorylation of GST-p53N66). In kind it is biochemical, Mammalian (HeLa cell nuclear extract). On the procedure: In order to assess the inhibitory action of the compounds against DNA-PK in vitro, the following assay was used to determine IC50 values.
DNA-PK (250 ng) activity was measured at 30° C., in a final volume of 40 μl, in buffer containing 25 mM Hepes, pH7.4, 12.5 mM MgCl2, 50 mM KCl, 1 mM DTT, 10% Glycerol, 0.1% NP-40 and […] of the substrate GST-p53N66 (the amino terminal 66 amino acid resiudes of human wild type p53 fused to glutathione S-transferase) in polypropylene 96 well plates. To the assay mix, varying concentrations of inhibitor (in DMSO at a final concentration of 1%) were added. After 10 minutes of incubation, ATP was added to give a final concentration of 50 μM along with a 30mer double stranded DNA oligonucleotide (final concentraion of 0.5 ng/ml) to initiate the reaction. After 1 hour with shaking, 150 μl of phosphate buffered saline (PBS) was added to the reaction and 5 μl then transferred to a 96 well opaque white plate containing 45 μl of PBS per well where the GSTp53N66 substrate was allowed to bind to the wells for 1 hour. […] An anti-rabbit HRP conjugated secondary antibody (Pierce) was then employed in the ELISA before the addition of chemiluminescence reagent (NEN Renaissance) to detect the signal as measured by chemiluminescent counting via a TopCount NXT (Packard).
The enzyme activity for each compound is then calculated using the following equation: [formula] […]

Assay [3] concerns cells. As to conditions: cited from earlier work.
Assay [4] deals with PI 3-kinase. As to conditions: stated to be the same as for DNA-PK; cited from earlier work.
Assay [5] deals with T1, DNA-PK. Particulars: in vitro; read-out: IC50 towards DNA-PK; cited from earlier work.

`O=c1cc(N2CCOCC2)oc2c(-c3cccc(-c4ccccc4)c3)cccc12`: in assay [1], the “SER (Survival Enhancement Ratio)” value was 1.5. This compound also gave an IC50 in assay [2] of 760 nM.
In the case of `O=c1cc(N2CCOCC2)oc2c(-c3ccccc3)cccc12` [LY294002], in assay [3], the “sensitisation of cells to the effects of IR” value is given as “weakly sensitise”. The IC50 in assay [4] and in assay [5] was roughly 1000 nM each time.

One may read the IC50 as the midpoint of a concentration-inhibition curve.
